Reference: article PMC10948870, “De novo antioxidant peptide design via machine learning and DFT studies” (Scientific Reports, 2024)

Assays:
red blood cells (RBCs) = experiment: Hemolysis assay; format: cell-based, human; details: 0.1% SDS + distilled water; 4 h room temperature; absorbance 450 nm
Protocol: The hemolysis test was performed as standard protocol. A 1.5 mL heparin blood sample was obtained from a healthy volunteer in our laboratory. The red blood cells (RBCs) were collected by centrifugation of blood samples at 3000 rpm for 15 min and then were washed three times with PBS. The RBC pellet was resuspended in a 10 mL phosphate-buffer solution (PBS). A 100 µL/well of different concentrations of peptides were added into a 96-well plate (2000 µg/mL, 1000 µg/mL, 500 µg/mL, 250 µg/mL, 125 µg/mL, 62.5 µg/mL, 31.25 µg/mL, 15.62 µg/mL, 7.8 µg/mL). For positive hemolysis control 100 µL/well of 0.1% sodium dodecyl sulfate and distilled water, and for negative hemolysis control 100 µL/well of PBS were added into the appropriated wells. After that, 100 µL RBC suspension was added into all the wells. The plate was incubated at room temperature for 4 h. Then the 100 µL supernatant of each well was carefully transferred to a new 96-well plate. The solution absorbance was investigated by a UV–Vis instrument at 450 nm.

[1] = Hydroxyl radical scavenging activity assay; format: biochemical; details: positive control, 0.5 mM solution; UV-Vis 510 nm
Text: Hydroxyl radical is one of the strong reactive oxygen species in biological systems that react with the unsaturated fatty acid of phospholipids of the cell membrane and cause cell damage[36]–[38]. To assess the efficacy of peptides in countering hydroxyl radicals, we subjected them to a hydroxyl radical-scavenging activity assay, indicating their scavenging potential across a range of concentrations. The method for preparing the test samples, reagents, and control samples for the hydroxyl scavenging activity assay is as follows: initially, peptide samples at 10 mg/mL concentration were dissolved in ethanol, and subsequently, diluted concentrations of 2, 4, 6, and 8 mg/L were obtained from this solution. The assay reagent includes 6 mM hydrogen peroxide and 6 mM ferrous sulfate in ethanol. A solution of ascorbic acid with 0.5 mM concentration has been prepared as a positive control and a solution without the peptide sample is considered as negative control. […] After 30 min, the UV–Vis absorbance was determined at 510 nm. The determination of hydroxyl radical scavenging activity for the peptide samples was executed as follows:2 Hydroxyl radical scavenging activity%=A0-A1/A0×100, where A0 is the absorbance of the negative control (solution without the peptide sample) and A1 is the absorbance of the peptide samples.

[2] = DPPH scavenging activity assay; format: biochemical; details: compared among six synthesized peptides and with ascorbic acid 0.5 mM
Protocol: A straightforward and expeditious approach for quantifying the antioxidant activity of antioxidants involves employing the 2,2-diphenyl-1-picrylhydrazyl (DPPH) assay, a spectrophotometric technique[36]–[38]. Preparation of the test sample, reagent, and control sample in the DPPH assay is as follows: peptide samples with a concentration of 10 mg/mL were prepared in ethanol and then were diluted in 2, 4, 6, and 8 mg/L concentrations. The DPPH solution is prepared with a concentration of 0.02% (w/v) in methanol. A solution of 0.5 mM ascorbic acid has been prepared as a positive control, and methanol is considered as the negative control sample. The peptide sample (250 μL) with DPPH solution (250 μL) in ethanol (1.0 mL) was mixed and stirred in the dark for 30 min at room temperature. The solutions were analyzed using a UV–Vis instrument (Varian, Cary 100) at 517 nm. The calculation of antioxidant activity percentage is reported as the following equation:1 DPPH scavenging activity%=A0-A1/A0×100.
In Eq. (1), A0 is the absorbance of the negative control (methanol) and A1 is the optical absorbance of the peptide samples.

Compound | DPPH free radical scavenging activity, in words [2] | also measured
CCCCCCCCCCCCOS(=O)(=O)[O-].[Na+] [SDS, sodium dodecyl sulfate] |  | Hemolysis, OD value of positive control (red blood cells (RBCs)): 2.21
O=C1O[C@H]([C@@H](O)CO)C(O)=C1O [ascorbic acid] |  | Hydroxyl radical scavenging activity [1]: 93.9%
YWHW [GP9, ML-generated antioxidant peptide YWHW, synthesized] | highest free radical scavenging activity | 
YWYHF [GP10, ML-generated antioxidant peptide YWYHF, synthesized] | highest free radical scavenging activity | 
LHHWY [GP12, ML-generated antioxidant peptide LHHWY, synthesized] | highest free radical scavenging activity | 
